# Where two headings read alike, the source gives them in different places.
# Experiments:
# Experiment in all cases: MIC, broth microdilution (CLSI), substance alone or ATB combined with compound at 4 or 8 μg/mL
# PAE UFR90 = assay type: cell-based, P. aeruginosa; settings: PAE UFR90
# Outline: (§1)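 Per CLSI-M7-A7, MICs are determined in cation-adjusted Mueller-Hinton broth with a final inoculum of 5·10^5 CFU/mL. Plates incubate 16-20 h at 35° C in air and are read by eye. Fosfomycin assays carry 25 μg/ml glucose-6-phosphate.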
# PAE 105250 = assay type: cell-based, P. aeruginosa; settings: PAE 105250
# Outline: as §1
# PAE UFR48 = assay type: cell-based, P. aeruginosa; settings: PAE UFR48
# Outline: as §1
# ECO UFR39 = assay type: cell-based, E. coli; settings: for MIC: Escherichia coli
# Outline: as §1
# ECO 190317 = assay type: cell-based, E. coli; settings: ECO 190317; for MIC: Escherichia coli
# Outline: as §1
# KPN UFR42 = assay type: cell-based, K. pneumoniae; settings: KPN UFR42
# Outline: as §1
# [1] = Pseudomonas aeruginosa, antibiotic alone, read-out: MIC ATB alone
structure (smiles),measurement,setting,value
"CO/N=C(\C(=O)N[C@@H]1C(=O)N2C(C(=O)O)=C(COC(N)=O)CS[C@H]12)c1ccco1 [FUR, Cefuroxime, reference compound]",MIC ATB combined with Example 1 @8 μg/ml,PAE UFR90; with Example 1 @8 μg/ml,<0.031 µg/mL
same,MIC ATB combined with Example 1 @8 μg/ml,PAE UFR90; with Example 1 at 8 μg/ml,<0.031 µg/mL
same,MIC ATB combined with Example 7 @8 μgml,PAE UFR90; with Example 7 at 8 μg/ml,>32 µg/mL
same,MIC ATB combined with Example 9 @4 μg/ml,PAE UFR90; with Example 9 @4 μg/ml,>32 µg/mL
same,MIC ATB combined with Example 9 @4 μg/ml,PAE UFR90; with Example 9 at 4 μg/ml,>32 µg/mL
same,MIC ATB combined with Example 11 @8 μg/ml,PAE UFR90; with Example 11 at 8 μg/ml,>32 µg/mL
same,MIC ATB combined with Example 12 @8 μg/ml,PAE UFR90; with Example 12 at 8 μg/ml,>32 µg/mL
same,MIC ATB combined with Example 13 @8 μg/ml,PAE UFR90; with Example 13 at 8 μg/ml,>32 µg/mL
same,MIC ATB combined with Example 14 @8 μg/ml,PAE UFR90; with Example 14 at 8 μg/ml,>32 µg/mL
same,MIC ATB combined with Example 15 @4 μgml,PAE UFR90; with Example 15 at 4 μg/ml,>32 µg/mL
same,MIC ATB combined with Example 16 @4 μg/ml,PAE UFR90; with Example 16 at 4 μg/ml,>32 µg/mL
same,MIC,PAE UFR90; [1],> 32 µg/mL
same,MIC ATB combined with Example 1 @8 μg/ml,PAE 105250; with Example 1 @8 μg/ml,<0.031 µg/mL
same,MIC ATB combined with Example 1 @8 μg/ml,PAE 105250; with Example 1 at 8 μg/ml,<0.031 µg/mL
same,MIC ATB combined with Example 7 @8 μgml,PAE 105250; with Example 7 at 8 μg/ml,>32 µg/mL
same,MIC ATB combined with Example 9 @4 μg/ml,PAE 105250; with Example 9 @4 μg/ml,>32 µg/mL
same,MIC ATB combined with Example 9 @4 μg/ml,PAE 105250; with Example 9 at 4 μg/ml,>32 µg/mL
same,MIC ATB combined with Example 11 @8 μg/ml,PAE 105250; with Example 11 at 8 μg/ml,>32 µg/mL
same,MIC ATB combined with Example 12 @8 μg/ml,PAE 105250; with Example 12 at 8 μg/ml,>32 µg/mL
same,MIC ATB combined with Example 13 @8 μg/ml,PAE 105250; with Example 13 at 8 μg/ml,>32 µg/mL
same,MIC ATB combined with Example 14 @8 μg/ml,PAE 105250; with Example 14 at 8 μg/ml,>32 µg/mL
same,MIC ATB combined with Example 15 @4 μgml,PAE 105250; with Example 15 at 4 μg/ml,>32 µg/mL
same,MIC ATB combined with Example 16 @4 μg/ml,PAE 105250; with Example 16 at 4 μg/ml,>32 µg/mL
same,MIC,PAE 105250; [1],> 512 µg/mL
same,MIC ATB combined with Example 1 @8 μg/ml,PAE UFR48; with Example 1 @8 μg/ml,<0.031 µg/mL
same,MIC ATB combined with Example 1 @8 μg/ml,PAE UFR48; with Example 1 at 8 μg/ml,<0.031 µg/mL
same,MIC ATB combined with Example 7 @8 μgml,PAE UFR48; with Example 7 at 8 μg/ml,>32 µg/mL
same,MIC ATB combined with Example 9 @4 μg/ml,PAE UFR48; with Example 9 @4 μg/ml,>32 µg/mL
same,MIC ATB combined with Example 9 @4 μg/ml,PAE UFR48; with Example 9 at 4 μg/ml,>32 µg/mL
same,MIC ATB combined with Example 11 @8 μg/ml,PAE UFR48; with Example 11 at 8 μg/ml,>32 µg/mL
same,MIC ATB combined with Example 12 @8 μg/ml,PAE UFR48; with Example 12 at 8 μg/ml,>32 µg/mL
same,MIC ATB combined with Example 13 @8 μg/ml,PAE UFR48; with Example 13 at 8 μg/ml,>32 µg/mL
same,MIC ATB combined with Example 14 @8 μg/ml,PAE UFR48; with Example 14 at 8 μg/ml,>32 µg/mL
same,MIC ATB combined with Example 15 @4 μgml,PAE UFR48; with Example 15 at 4 μg/ml,>32 µg/mL
same,MIC ATB combined with Example 16 @4 μg/ml,PAE UFR48; with Example 16 at 4 μg/ml,>32 µg/mL
same,MIC,PAE UFR48; [1],> 32 µg/mL
same,MIC ATB combined with Example 1 @8 μg/ml,"ECO UFR39; ECO UFR39, with Example 1 @8 μg/ml",>32 µg/mL
same,MIC ATB combined with Example 1 @8 μg/ml,"ECO UFR39; ECO UFR39, with Example 1 at 8 μg/ml",>32 µg/mL
same,MIC ATB combined with Example 7 @8 μgml,"ECO UFR39; ECO UFR39, with Example 7 at 8 μg/ml",<0.031 µg/mL
same,MIC ATB combined with Example 9 @4 μg/ml,"ECO UFR39; ECO UFR39, with Example 9 @4 μg/ml",<0.031 µg/mL
same,MIC ATB combined with Example 9 @4 μg/ml,"ECO UFR39; ECO UFR39, with Example 9 at 4 μg/ml",<0.031 µg/mL
same,MIC ATB combined with Example 11 @8 μg/ml,"ECO UFR39; ECO UFR39, with Example 11 at 8 μg/ml",<0.031 µg/mL
same,MIC ATB combined with Example 12 @8 μg/ml,"ECO UFR39; ECO UFR39, with Example 12 at 8 μg/ml",<0.031 µg/mL
same,MIC ATB combined with Example 13 @8 μg/ml,"ECO UFR39; ECO UFR39, with Example 13 at 8 μg/ml",<0.031 µg/mL
same,MIC ATB combined with Example 14 @8 μg/ml,"ECO UFR39; ECO UFR39, with Example 14 at 8 μg/ml",<0.031 µg/mL
same,MIC ATB combined with Example 15 @4 μgml,"ECO UFR39; ECO UFR39, with Example 15 at 4 μg/ml",<0.031 µg/mL
same,MIC ATB combined with Example 16 @4 μg/ml,"ECO UFR39; ECO UFR39, with Example 16 at 4 μg/ml",<0.031 µg/mL
same,MIC,ECO UFR39,> 256 µg/mL
same,MIC,"ECO UFR39; ECO UFR39, antibiotic alone, read-out: MIC ATB alone",> 32 µg/mL
same,MIC ATB combined with Example 1 @8 μg/ml,ECO 190317; with Example 1 @8 μg/ml,<0.031 µg/mL
same,MIC ATB combined with Example 1 @8 μg/ml,ECO 190317; with Example 1 at 8 μg/ml,<0.031 µg/mL
same,MIC ATB combined with Example 7 @8 μgml,ECO 190317; with Example 7 at 8 μg/ml,<0.031 µg/mL
same,MIC ATB combined with Example 9 @4 μg/ml,ECO 190317; with Example 9 @4 μg/ml,<0.031 µg/mL
same,MIC ATB combined with Example 9 @4 μg/ml,ECO 190317; with Example 9 at 4 μg/ml,<0.031 µg/mL
same,MIC ATB combined with Example 11 @8 μg/ml,ECO 190317; with Example 11 at 8 μg/ml,<0.031 µg/mL
same,MIC ATB combined with Example 12 @8 μg/ml,ECO 190317; with Example 12 at 8 μg/ml,<0.031 µg/mL
same,MIC ATB combined with Example 13 @8 μg/ml,ECO 190317; with Example 13 at 8 μg/ml,<0.031 µg/mL
same,MIC ATB combined with Example 14 @8 μg/ml,ECO 190317; with Example 14 at 8 μg/ml,<0.031 µg/mL
same,MIC ATB combined with Example 15 @4 μgml,ECO 190317; with Example 15 at 4 μg/ml,<0.031 µg/mL
same,MIC ATB combined with Example 16 @4 μg/ml,ECO 190317; with Example 16 at 4 μg/ml,<0.031 µg/mL
same,MIC,"ECO 190317; antibiotic alone, read-out: MIC ATB alone",> 512 µg/mL
same,MIC,"ECO 190317; substance alone, read-out: MIC",> 512 µg/mL
same,MIC ATB combined with Example 1 @8 μg/ml,KPN UFR42; with Example 1 @8 μg/ml,>32 µg/mL
same,MIC ATB combined with Example 1 @8 μg/ml,KPN UFR42; with Example 1 at 8 μg/ml,>32 µg/mL
same,MIC ATB combined with Example 7 @8 μgml,KPN UFR42; with Example 7 at 8 μg/ml,>32 µg/mL
same,MIC ATB combined with Example 9 @4 μg/ml,KPN UFR42; with Example 9 @4 μg/ml,>32 µg/mL
same,MIC ATB combined with Example 9 @4 μg/ml,KPN UFR42; with Example 9 at 4 μg/ml,>32 µg/mL
same,MIC ATB combined with Example 11 @8 μg/ml,KPN UFR42; with Example 11 at 8 μg/ml,<0.031 µg/mL
same,MIC ATB combined with Example 12 @8 μg/ml,KPN UFR42; with Example 12 at 8 μg/ml,<0.031 µg/mL

# — patent US20200024278A1, “COMPOSITION COMPRISING ANTIBIOTIC COMPOUND AND AN HETEROCYCLIC COMPOUND AND THEIR USE IN PREVENTING OR TREATING BACTERIAL INFECTIONS” (MUTABILIS, priority 2016, published 2020)
